Where a SMILES comes first, the peptide text is derived from it. The star is where a group is joined. Cbz = O=C(OCc1ccccc1)*
How the values were obtained:
Assay type in all cases: cell-based, human
[1] = system: NK-92 cells; assay: Cytotoxicity of MAPK inhibitor-treated NK-92 cells against K562; settings: NK-92 cells treated with 10 mM inhibitor; compared with ERK and p38 inhibitors
[2] = system: Pyk2; assay: Immunoprecipitation of Flag-Pyk2, GST-SOCS2 and HA-ubiquitin in 293T cells; settings: MG132-containing medium vs general culture medium
Procedure: In order to determine whether SOCS2 inhibits the proteasome-mediated Pyk2 degradation or not, the following experiment was carried out. First of all, pGST-SOCS2, pFlag-Pyk2, and HA-ubiquitin (AddGene) were cotransformed into 293T cells using Lipofectamin 2000. After 4 hr of transformation, the medium was replaced to a general culture medium or MG132 (proteasome inhibitor)-containing medium, and 24 hr later, cells were lysed. The each cell lysate was allowed to react with anti-Flag antibody or anti-GST antibody. The antigen-antibody complexes were precipitated by incubation at 4° C. for 1 day with G-protein-conjugated agarose (Roshe, Switzerland). The immunoprecipitated complexes were washed with 1×PBS. Western blot analysis was performed by the same method in Example <2-1> using anti-GST antibody, anti-Flag antibody, or anti-HA antibody (Santa Cruz, U.S.A.).

[3] = system: Pyk2; assay: GST pull down of GST-SOCS2 and Flag-Pyk2 in 293T cells; settings: MG132-containing medium vs general culture medium
Procedure: The GST expression vector and pFlag-Pyk2, or pGST-SOCS2 and pFlag-Pyk2 were cotransformed into 293T cells using Lipofectamin 2000 (Invitrogen, U.S.A.). After 4 hr of transformation, the medium was replaced to a general culture medium or MG132 (proteasome inhibitor)-containing medium, and […], cells were lysed. The each cell lysate was allowed to react with glutathione-sepharose bead (GE Healthcare, U.S.A.) at 4° C. for 4 hr. Western blot analysis was performed by the same method in Example <2-1> using anti-Flag primary antibody (Santa Cruz, U.S.A.) or anti-GST primary antibody (Santa Cruz, U.S.A.).

[4] = system: primary NK cells; assay: socs1, socs2, socs3 mRNA expression by real time PCR in IL-15-stimulated primary NK cells; settings: IL-15 stimulation after deprivation
Procedure: Deprivation and IL-15 stimulation was carried out with primary NK cells using the same method in Example <2-2>. The amounts of mRNA expression of socs1, socs2 and socs3 were measured by real time PCR. Primers in Table 1 and Table 3 were used.
Specifically, each NK cell was collected and total RNA was extracted using Trizol Reagent (Invitrogen, U.S.A.). Then, 1 μg of the RNA was reverse transcribed into cDNA using reverse transcriptase superscript II (Invitrogen). Using the cDNA as template, real time PCR was performed with the 2×SYBR Premix Ex Taq™ (TaKaRa, Japan) and SOCS2 primer pairs of Table 2 (Exicycler version 2, Bioneer, Republic of Korea). Concurrently, using GAPDH (Glyceraldehyde-3-phosphate dehydrogenase) as a quantitative control, real time PCR was performed with GAPDH primer pair of Table 2. The PCR condition was as follows: denaturation of 10 min at 95° C.; 40 cycles of […], 30 sec at 60° C., and 1 min at 72° C.; and extension of 8 min at 72° C. followed by cooling to room temperature. After analyzing real time PCR data by the comparative CT (2^−ΔΔCt) method which normalizes the amount of socs2 expression of each sample to the amount of GAPDH expression, the relative amount of SOCS2 expression in differentiated NK cells at each day to the amount of socs2 expression in primary NK cells was shown as a graph in FIG. 1(a).

[5] = system: NK-92 cells; assay: Western blot of SOCS2 and p-Pyk2Tyr402 after IL-15 in NK-92 cells; settings: IL-15 for 6, 12 or 24 hr
Procedure: (§1) Each NK cell was lysed in RIPA buffer (50 mM Tris-HCl, pH 7.4, 150 mM NaCl, 0.25% SDS, 1% NP-40, 1 mM EDTA, a protease inhibitor cocktail, and a phosphate inhibitor cocktail) and the concentration of protein present in the whole cell lysate was determined using BCA Protein Assay Kit (Pierce, U.S.A.). 30 μg of each protein sample was resolved using 10 or 12% SDS-PAGE gel and transferred to an Immobilon-P membrane (Millipore Corporation, U.S.A.). The membrane was blocked with 5% skim milk and treated with anti-SOCS2 antibody (Santa Cruz, U.S.A.) as a primary antibody for 1 day at 4° C. HRP-conjugated anti-rabbit secondary antibody (Santa Cruz, U.S.A.) was attached to the primary antibody-treated membrane, and then, Immobilon Western Chemiluminescent HRP Substrate (Milipore Corporation) was added thereto. The membrane was exposed to X-ray film. As quantitative control, the amount of expression of GAPDH was examined using anti-GAPDH primary antibody (Santa Cruz, U.S.A.) by the above method.
To assess how SOCS2 which binds with p-Pyk2^Tyr402 in NK cells regulates Pyk2, the following experiment was carried out. With NK-92 cells cultured without or with IL-15 for 6, 12 or 24 hr using the same method in Example <2-2>, Western blot analysis was carried out using the same method in Example <2-1> with anti-SOCS2 antibody, anti-p-Pyk2^Tyr402 antibody, anti-Pyk2 antibody and anti-GAPDH antibody. […]

[6] = system: NK-92 cells; assay: socs2 mRNA expression by real time PCR in cytokine-treated NK-92 cells
Procedure: NK cell differentiation is mediated by IL-15 (Interleukin 15) cytokine. To determine whether the SOCS2 upregulation following NK cell differentiation was induced by IL-15, the present inventors experimented on the IL-15-induced SOCS2 upregulation in mature NK cells. The experimented NK-92 human NK cells and primary NK cells live and proliferate in the condition where IL-15 exists. Accordingly, to measure the effect of IL-15, deprivation of IL-15 was carried out by culturing cells in a medium without IL-15 for 24 hr prior to IL-15 treatment, and then the medium was replaced with a medium containing 10 ng/mL IL-15 to make a cell differentiation condition. Real time PCR was carried out with NK-92 cells at 4, 8, 12, and 16th hr after the replacement of the medium using the same method in Example <3-1-1> to measure the amount of socs2 mRNA expression.
Specifically, each NK cell was collected and total RNA was extracted using Trizol Reagent (Invitrogen, U.S.A.). Then, 1 μg of the RNA was reverse transcribed into cDNA using reverse transcriptase superscript II (Invitrogen). […] Concurrently, using GAPDH (Glyceraldehyde-3-phosphate dehydrogenase) as a quantitative control, real time PCR was performed with GAPDH primer pair of Table 2. […]

[7] = system: Pyk2; assay: Immunoprecipitation for ubiquitination of Pyk2 after IL-15 in NK-92 cells; settings: NK-92 cells stimulated with IL-15, anti-Pyk2 immunoprecipitation
Procedure: To determine whether the decrease in p-Pyk2^Tyr402 by SOCS2 expression, confirmed in Example <13> resulted from the ubiquitin-mediated proteasomal degradation of p-Pyk2^Tyr402 by increased SOCS2 by IL-15, the following experiment was carried out. NK-92 cells stimulated with IL-15 as in Example <2-2> were lysed and the cell lysates were allowed to react with anti-Pyk2 antibody. The antigen-antibody complexes were precipitated by incubation at 4° C. for 1 day with G-protein-conjugated agarose. The immunoprecipitated complexes were washed with 1×PBS. Western blot analysis was performed by the same method in Example <2-1> using anti-ubiquitin antibody (Santa Cruz, U.S.A.), anti-SOCS2 antibody, anti-p-Pyk2^Tyr402 antibody, anti-Pyk2 antibody, and anti-GAPDH antibody.

[8] = system: NK-92 cells and primary NK cells; assay: SOCS2 protein expression by Western blot after IL-15 stimulation; settings: IL-15 stimulation after deprivation
Procedure: as §1, with “method. […]” for “method.”

[9] = system: primary NK cells; assay: Western blot of SOCS2 and p-Pyk2Tyr402 after IL-15 in primary NK cells; settings: primary NK cells with or without IL-15
Procedure: as §1
NK cells cultured without or with IL-15, Western blot analysis was carried out using the same method in Example <2-1> with anti-SOCS2 antibody, anti-p-Pyk2^Tyr402 antibody, anti-Pyk2 antibody and anti-GAPDH antibody.

[10] = system: SOCS2; assay: SOCS2 protein knockdown by siRNA, Western blot; settings: primary NK cells transduced with siRNA, IL-15 stimulation 16 hr
Procedure: as §1
IL-15 is an essential cytokine for NK cell differentiation. With SOCS2 expression inhibited, the present inventors measured the NK cell differentiation by IL-15 stimulation. […] Concurrently, β-actin expression was also observed by using anti-β-actin primary antibody (Santa Cruz, U.S.A.) as a quantitative control.

[11] = system: primary NK cells; assay: NK cell differentiation, CD-56 expression by FACS; settings: primary NK cells transduced with siRNA, day 2, 3, 5, IL-15 stimulation
Procedure: Also, to determine whether the inhibition of SOCS2 expression affected the NK cell differentiation or not, primary NK cells were transduced with siRNA and CD-56 expression was measured by performing FACS on the cells at 2, 3, and 5th day.

Molecule: Oc1c2ccccc2c2c3c(cccc13)N=N2 [JNK inhibitor, SP600125]
- cytotoxicity against the K562 cancer cell line [1]: most significantly reduced

Molecule: CC(C)C[C@@H](C=O)NC(=O)[C@H](CC(C)C)NC(=O)[C@H](CC(C)C)NC(=O)OCc1ccccc1 [MG132] (Cbz-Leu-Leu-Leu-aldehyde)
- GST band and HA (ubiquitin) bands in anti-Flag immunoprecipitate [2]: significantly large GST band and more HA bands
- Flag band (Flag-Pyk2) in GST pull down [3]: significantly large Flag band

Molecule: IL-15: cytokine priming NK cell differentiation (Peprotech)
- mRNA expression of socs1, socs2 and socs3 [4]: only socs2 mRNA expression among SOCS family members increased
- SOCS2 expression [5]: increased in an IL-15 stimulation time-dependent manner
- phosphorylation of tyrosine 402 in Pyk2 [5]: decreased
- SOCS2 expression (socs2 mRNA) ([6]; NK-92 cells deprived of IL-15 24 hr, then 10 ng/mL IL-15, 4, 8, 12, 16 hr): SOCS2 expression increased in NK-92 cells
- SOCS2 expression (mRNA), specificity among cytokines ([6]; deprived NK-92 cells, 30 ng/mL IL7, IL-12, IL-15, IL-18, IL-21 for 16 hr): SOCS2 expression was induced specifically by IL-15 stimulation
- phosphorylation of Pyk2 [7]: phosphorylation of Pyk2 decreased
- ubiquitination of Pyk2 [7]: ubiquitination of Pyk2 increased
- SOCS2 protein expression [8]: IL-15 stimulated SOCS2 expression was observed in both NK-92 cells and primary NK cells
- expression of SOCS2 and phosphorylation of Pyk2 [9]: induced the expression of SOCS2 and the decrease in the phosphorylation of Pyk2

Molecule: SOCS2 siRNA: SOCS2 siRNA (Dharmacon, SEQ ID NO.12: 5′-CGACUACUAUGUUCAGAUG-3′) (listed as RNA, chemistry not given here)
- SOCS2 protein expression [10]: SOCS2 protein expression was inhibited
- CD-56 expression (NK cell differentiation) [11]: increased CD-56 expression similarly regardless of whether SOCS2 protein was expressed or not

Source: patent US20120282646A1, “METHOD FOR ACTIVATING A NATURAL KILLER CELL BY ADJUSTING THE EXPRESSION OF THE SOCS2 GENE” (Korea Research Institute of Bioscience and Biotechnology, priority 2009, published 2012)
